Here are results for three compounds from article PMC10746543, “Design principles for cyclin K molecular glue degraders” (Nature Chemical Biology, 2023).

Several values for one entry are separate records, joined by “and”; a condition that tells them apart may be missing. Equal values may be shown once. Read-outs that look alike come from different tables or passages of the source.

For experiment [1], the system named is HEK293T cells. As to the kind of experiment: Drug sensitivity assay (CellTiter-Glo viability) with or without MLN4924 pretreatment. The experiment is classed as cell-based, human. The settings on record: for EC50: Homo sapiens, HEK-293T, HEK293T viability, 72 h, compound alone, read-out: Cellular assays EC50; for EC50 / Toxicity rescue: Supplementary Table 2; for Toxicity rescue: MLN4924-mediated cytotoxicity rescue, 10 µM used where n.d. The method in brief:
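HEK293T–Cas9 cells at 0.15 × 10^6 ml^−1 were treated with DMSO or 100 nM MLN4924 before plating. Test drugs were added 2 h later and exposure lasted 3 days. Viability was read by CellTiter-Glo luminescence and expressed relative to DMSO controls.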
Background: In ATP-based viability assays light output follows the ATP content of the culture.

Experiment [2] has as its system cyclin K–eGFP degradation reporter. In words: Cyclin K reporter stability analysis (dual-color cyclin K–eGFP reporter). The experiment is classed as cell-based, human. Put shortly: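 A 5 h treatment of HEK293T–Cas9 cells expressing the degradation reporter preceded flow cytometry; eGFP over mCherry, normalized to DMSO.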
Experiment [3] deals with T1, CDK12–cyclin K and DDB1 (Homo sapiens, UniProt Q16531+Q9NYV4, K965R).
T1 construct: His6–CDK12 (a.a. 713–1,052); full-length or beta-propeller B domain deletion (ΔBPB: a.a. 396–705 deleted) constructs of His6–DDB1ΔBPB, StrepII–Avi–DDB1, or His6–Spy–DDB1; made in house; host or cells: Trichoplusia ni High Five insect cells (baculovirus)
In words: TR-FRET ternary complex formation assay (compound titration). The settings on record: for TR-FRET signal at compound concentration: replicate titrations. The experiment is classed as binding. The method in brief:
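Read-out used a 70 μs delay to cut background fluorescence; TR-FRET signal taken as the 520 nm/490 nm emission ratio.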
On the technique in general: In TR-FRET formats the signal depends on donor and acceptor labels being close together.

The mark [4] stands for this setting: compound concentration 0.468 nM.
Where [5] appears, read: compound concentration 7.92001 nM.
Where [6] appears, read: compound concentration 15.84 nM.
Setting [7] is: compound concentration 30.96 nM.
[8] abbreviates: compound concentration 62.6401 nM.
Setting [9] is: compound concentration 125.28 nM.
Setting [10] is: compound concentration 244.8 nM.
[11] abbreviates: compound concentration 993.601 nM.
[12] abbreviates: compound concentration 2001.6 nM.
[13] abbreviates: in vitro complex formation, 50 nM CDK12–cyclin K, 100 nM DDB1, text and figures, read-out: TR-FRET EC50.
[14] abbreviates: Supplementary Table 2, HEK293T cycK-eGFP reporter, 5 h, read-out: Cellular assays DC50.

T1 sequence (Q9NYV4 713-1052 K965R): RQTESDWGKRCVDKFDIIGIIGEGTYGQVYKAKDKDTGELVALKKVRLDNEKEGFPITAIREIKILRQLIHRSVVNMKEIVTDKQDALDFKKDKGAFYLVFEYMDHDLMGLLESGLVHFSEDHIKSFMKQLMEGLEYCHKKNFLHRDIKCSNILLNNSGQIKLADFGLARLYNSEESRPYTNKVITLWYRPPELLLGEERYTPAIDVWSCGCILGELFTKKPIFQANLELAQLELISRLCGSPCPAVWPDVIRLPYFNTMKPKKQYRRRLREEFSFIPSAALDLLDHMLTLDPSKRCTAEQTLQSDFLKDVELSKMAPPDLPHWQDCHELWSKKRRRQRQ
T1 sequence (O75909 1-267 partner): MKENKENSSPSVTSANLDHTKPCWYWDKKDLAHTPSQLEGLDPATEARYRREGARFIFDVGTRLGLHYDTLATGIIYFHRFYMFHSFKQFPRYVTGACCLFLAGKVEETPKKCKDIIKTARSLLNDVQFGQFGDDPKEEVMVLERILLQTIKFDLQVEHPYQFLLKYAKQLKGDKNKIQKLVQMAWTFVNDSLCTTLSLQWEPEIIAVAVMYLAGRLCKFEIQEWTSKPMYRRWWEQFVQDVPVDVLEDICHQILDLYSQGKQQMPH
T1 sequence (Q16531 whole entry): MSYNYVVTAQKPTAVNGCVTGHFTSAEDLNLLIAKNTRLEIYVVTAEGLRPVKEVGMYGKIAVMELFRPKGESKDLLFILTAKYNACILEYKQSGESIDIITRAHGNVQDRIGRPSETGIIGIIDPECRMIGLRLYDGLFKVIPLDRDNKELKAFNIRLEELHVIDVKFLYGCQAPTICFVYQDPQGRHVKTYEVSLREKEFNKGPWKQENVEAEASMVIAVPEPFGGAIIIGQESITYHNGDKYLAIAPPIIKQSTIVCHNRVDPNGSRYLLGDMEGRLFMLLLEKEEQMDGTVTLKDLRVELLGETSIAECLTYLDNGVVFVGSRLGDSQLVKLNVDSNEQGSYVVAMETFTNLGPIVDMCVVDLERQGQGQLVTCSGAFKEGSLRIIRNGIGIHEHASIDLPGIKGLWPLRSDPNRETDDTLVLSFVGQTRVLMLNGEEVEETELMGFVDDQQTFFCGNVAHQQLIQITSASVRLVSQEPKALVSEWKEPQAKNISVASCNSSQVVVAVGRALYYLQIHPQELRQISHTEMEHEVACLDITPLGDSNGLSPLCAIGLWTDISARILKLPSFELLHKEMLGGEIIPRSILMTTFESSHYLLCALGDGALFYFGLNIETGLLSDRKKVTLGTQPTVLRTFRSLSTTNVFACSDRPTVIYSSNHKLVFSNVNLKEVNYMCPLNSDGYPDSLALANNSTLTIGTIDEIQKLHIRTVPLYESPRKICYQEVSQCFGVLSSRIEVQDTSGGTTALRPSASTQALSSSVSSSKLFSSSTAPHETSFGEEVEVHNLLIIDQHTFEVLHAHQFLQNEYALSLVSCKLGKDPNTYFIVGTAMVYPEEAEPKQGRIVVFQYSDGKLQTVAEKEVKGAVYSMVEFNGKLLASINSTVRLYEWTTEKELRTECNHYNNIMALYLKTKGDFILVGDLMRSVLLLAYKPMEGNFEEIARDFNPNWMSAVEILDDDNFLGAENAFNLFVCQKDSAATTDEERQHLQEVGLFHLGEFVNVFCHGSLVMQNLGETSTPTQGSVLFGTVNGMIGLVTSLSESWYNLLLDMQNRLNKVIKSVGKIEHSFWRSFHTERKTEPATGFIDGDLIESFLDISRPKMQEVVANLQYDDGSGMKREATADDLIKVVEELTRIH

Consider `CC[C@H](CO)Nc1nc(NCCCc2cccc(F)c2)c2ncn(C(C)C)c2n1` [DS29], for which the EC50 (in general, the concentration at which the effect is half-maximal) in experiment [1] was 452 nM; in experiment [3] (setting [13]) it was 46 ± 2 nM; in experiment [3] (sheet MOESM7, read-out: log TR-FRET EC50 (converted)), 45.7 nM; in experiment [3] (source data sheet correlations, read-out: TR-FRET EC50), 45.7 nM. Further, the “% MLN4924 rescue” value in experiment [1] (PCA input) turned out to be 669%. In experiment [1], the Toxicity rescue is 713%. Moreover, the DC50 (commonly the concentration at which degradation of the target reaches its halfway point) in experiment [2] (source data sheet correlations, read-out: DC50) came to 253 nM. Besides, the “TR-FRET signal at compound concentration” value in experiment [3] (setting [4]) was 0.256 and 0.2516; in experiment [3] (compound concentration 2.16 nM), 0.3133 and 0.3182; in experiment [3] (compound concentration 3.6 nM), 0.4047 and 0.4311; in experiment [3] (setting [5]), 0.6615 and 0.6381; in experiment [3] (setting [6]), 1.045 and 0.9914; in experiment [3] (setting [7]) it was 1.635 and 1.536. Further, the “TR-FRET signal at compound concentration” value in experiment [3] (setting [8]) is 2.287 and 2.228; in experiment [3] (setting [9]), 2.838 and 2.826; in experiment [3] (setting [10]), 3.127 and 3.261; in experiment [3] (setting [11]), 3.39 and 3.672; in experiment [3] (setting [12]), 3.566 and 3.699.

Regarding `CC[C@H](CO)Nc1nc(NCc2ccc(-c3ccc(C)s3)cc2)c2ncn(C(C)C)c2n1` [DS25], the EC50 in experiment [1] is 267 nM; in experiment [3] (Supplementary Table 2, read-out: TR-FRET EC50 TR-FRET) it was 15 nM; in experiment [3] (setting [13]) it was 15 ± 1 nM. Further, the Toxicity rescue in experiment [1] is 795%. In experiment [2] (setting [14]), the half-maximal degradation concentration (DC50) was found to be 90 nM. The “TR-FRET signal at compound concentration” value is 0.2617 and 0.2677 in experiment [3] (setting [4]); 0.4243 and 0.428 in experiment [3] (compound concentration 2.16 nM); 0.7393 and 0.7415 in experiment [3] (compound concentration 3.6 nM); 1.2835 and 1.267 in experiment [3] (setting [5]); 1.9468 and 1.95 in experiment [3] (setting [6]); 2.593 and 2.662 in experiment [3] (setting [7]). Also, the “TR-FRET signal at compound concentration” value in experiment [3] (setting [8]) is 3.101 and 3.186; in experiment [3] (setting [9]), 3.361 and 3.544; in experiment [3] (setting [10]) it was 3.469 and 3.727; in experiment [3] (setting [11]), 3.278 and 3.742; in experiment [3] (setting [12]), 3.339 and 3.592.

`CN(C)C/C=C/C(=O)Nc1ccc(C(=O)N2CCC[C@@H](Nc3ncc(Cl)c(-c4c[nH]c5ccccc45)n3)C2)cc1` [THZ531, reference compound]: in experiment [1], the EC50 is 271 nM and the Toxicity rescue is given as -22%. The DC50 in experiment [2] (setting [14]) is over 10000 nM. The “TR-FRET signal at compound concentration 4.68 nM” value in experiment [3] (compound concentration 4.68 nM, raw replicate titration data) is 0.1294 and 0.1297. In addition, in experiment [3] (compound concentration 21.6 nM, raw replicate titration data), the “TR-FRET signal at compound concentration 21.6 nM” value is 0.1203 and 0.1454. For the same compound, the “TR-FRET signal at compound concentration 36 nM” value in experiment [3] (compound concentration 36 nM, raw replicate titration data) was 0.1008 and 0.09563. In addition, the “TR-FRET signal at compound concentration 79.2001 nM” value in experiment [3] (compound concentration 79.2001 nM, raw replicate titration data) was 0.09205 and 0.08033. Besides, the “TR-FRET signal at compound concentration 158.4 nM” value in experiment [3] (compound concentration 158.4 nM, raw replicate titration data) was 0.08734 and 0.07305. In addition, the “TR-FRET signal at compound concentration 309.6 nM” value in experiment [3] (compound concentration 309.6 nM, raw replicate titration data) was 0.08584 and 0.06932. In experiment [3] (compound concentration 626.401 nM, raw replicate titration data), the “TR-FRET signal at compound concentration 626.401 nM” value is 0.07997 and 0.06847. Besides, the “TR-FRET signal at compound concentration 1252.8 nM” value in experiment [3] (compound concentration 1252.8 nM, raw replicate titration data) is 0.0797 and 0.06911. The “TR-FRET signal at compound concentration 2448 nM” value in experiment [3] (compound concentration 2448 nM, raw replicate titration data) was 0.07318 and 0.06928. Also, the “TR-FRET signal at compound concentration 9936.01 nM” value in experiment [3] (compound concentration 9936.01 nM, raw replicate titration data) was 0.07478 and 0.06588. In addition, in experiment [3] (compound concentration 20016 nM, raw replicate titration data), the “TR-FRET signal at compound concentration 20016 nM” value is 0.07606 and 0.06434.
